Laboratory results reported in patent US12030929B2, “Fusobacterium nucleatum amyloid-like FadA for diagnosis and treatment of Fn-mediated pathogenesis” (The Trustees of Columbia University in the City of New York, priority 2021, dated 2024).

Test system: Fn 12230
Test: Biofilm assay: Fn biofilm formation on detergent-resistant Fn pellets
Format: cell-based, Fusobacterium nucleatum
Conditions: 0, 10 or 50 μg/ml Congo Red; 48 or 72 hours; crystal violet OD550
Method: FIG. 4A-4F. Functional analysis of amyloid-like FadA in vitro. 4A. Facilitation of Fn biofilm formation by amyloid-like FadA. An aliquot of 10 μg each of the detergent-resistant pellets prepared from of Fn 12230 (wild type), US1 (ΔfadA) and lam, or PBS, was added to the 96-well plates and incubated at 37° C. for 5 hours. Fresh culture of Fn 12230 was diluted to OD600 of 0.2 and an aliquot of 200 μl was added to the wells, followed by incubation at 37° C. for 48 or 72 hours under anaerobic conditions. Following washes, the biofilms were incubated with 100 μl 0.1% crystal violet for 15 min. After washing, 100 μl 95% ethanol was added to each well and the optical density at OD550 was measured in a microplate reader. The results shown are the average of four experiments each performed in duplicate. A representative image following 72 hours of incubation is shown in the top panel. **p<0.01. ***p<0.001 (t-test). 4B. Inhibition of biofilm formation mediated by detergent-resistant Fn pellets by Congo Red. An aliquot of 10 μg detergent-resistant pellets prepared from Fn 12230 (pellet) was added in 96-well plates in the presence of 0, 10 or 50 μg/ml Congo Red (CR), followed by addition of Fn 12230 and incubated as described above. The results shown are the average of four experiments each performed in duplicate. […]

In the case of `Nc1c(/N=N/c2ccc(-c3ccc(/N=N/c4cc(S(=O)(=O)O)c5ccccc5c4N)cc3)cc2)cc(S(=O)(=O)O)c2ccccc12` [Congo Red], the “biofilm formation mediated by detergent-resistant Fn pellets” value was “inhibited biofilm formation in a dose-dependent manner”.
